Source: PubChem BioAssay AID256 (DTP/NCI, 2004)
Several values for one entry are separate records, joined by “and”; a condition that tells them apart may be missing. Identical values can stand only once. Inconclusive results and toxic doses are left out. Rule for the calls: active = survival T/C of 150% or more; inactive = T/C below 125% in these data.

Test system: CD2F1 mice, L1210 leukemia ip, survival T/C
Test: NCI In Vivo Anticancer Drug Screen. Data for tumor model L1210 Leukemia (intraperitoneal) in CD2F1 (CDF1) mice
Conditions: higher = longer survival
Summary of the method: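 Each value reflects a quotient of treated over vehicle control outcomes in mice with a transplanted tumor.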

[1] = endpoint: mean survival time, dose: 75.0 mg/kg/injection, schedule: Q01DX001 (ip), vehicle: saline
[2] = endpoint: mean survival time, dose: 150.0 mg/kg/injection, schedule: Q01DX001 (ip), vehicle: saline
[3] = endpoint: mean survival time, dose: 300.0 mg/kg/injection, schedule: Q01DX001 (ip), vehicle: saline
[4] = endpoint: mean survival time, dose: 100.0 mg/kg/injection, schedule: Q04DX002 (ip), vehicle: saline with Tween-80
[5] = endpoint: mean survival time, dose: 200.0 mg/kg/injection, schedule: Q04DX002 (ip), vehicle: saline with Tween-80
[6] = endpoint: mean survival time, dose: 100.0 mg/kg/injection, schedule: Q01DX009 (ip), vehicle: saline with Tween-80
[7] = endpoint: mean survival time, dose: 200.0 mg/kg/injection, schedule: Q01DX009 (ip), vehicle: saline with Tween-80
[8] = endpoint: mean survival time, dose: 400.0 mg/kg/injection, schedule: Q01DX009 (ip), vehicle: saline with Tween-80
[9] = endpoint: mean survival time, dose: 25.0 mg/kg/injection, schedule: Q01DX009 (ip), vehicle: saline with Tween-80
[10] = endpoint: mean survival time, dose: 50.0 mg/kg/injection, schedule: Q01DX009 (ip), vehicle: saline with Tween-80
[11] = endpoint: mean survival time, dose: 100.0 mg/kg/injection, schedule: Q04DX003 (ip), vehicle: saline
[12] = endpoint: mean survival time, dose: 200.0 mg/kg/injection, schedule: Q04DX003 (ip), vehicle: saline
[13] = endpoint: mean survival time, dose: 100.0 mg/kg/injection, schedule: Q01DX001 (ip), vehicle: saline with Tween-80
[14] = endpoint: mean survival time, dose: 200.0 mg/kg/injection, schedule: Q01DX001 (ip), vehicle: saline with Tween-80
[15] = endpoint: mean survival time, dose: 400.0 mg/kg/injection, schedule: Q04DX002 (ip), vehicle: saline with Tween-80
[16] = endpoint: mean survival time, dose: 100.0 mg/kg/injection, schedule: Q04DX003 (ip), vehicle: saline with Tween-80
[17] = endpoint: mean survival time, dose: 200.0 mg/kg/injection, schedule: Q04DX003 (ip), vehicle: saline with Tween-80
[18] = endpoint: mean survival time, dose: 400.0 mg/kg/injection, schedule: Q04DX003 (ip), vehicle: saline with Tween-80
[19] = endpoint: mean survival time, dose: 400.0 mg/kg/injection, schedule: Q01DX001 (ip), vehicle: saline with Tween-80
[20] = endpoint: mean survival time, dose: 100.0 mg/kg/injection, schedule: Q01DX001 (ip), vehicle: saline
[21] = endpoint: mean survival time, dose: 200.0 mg/kg/injection, schedule: Q01DX001 (ip), vehicle: saline

Measured: T/C

Nc1ccccc1C1=Nc2cncnc2NC1
inactive: [1] 104 % of control | [2] 102 % of control | [3] 93 % of control

FC(F)(F)c1nc2nccnc2[nH]1
inactive: endpoint: mean survival time, dose: 50.0 mg/kg/injection, schedule: Q01DX009 (ip), vehicle: saline 95 % of control | endpoint: mean survival time, dose: 100.0 mg/kg/injection, schedule: Q01DX009 (ip), vehicle: saline 91 % of control | endpoint: mean survival time, dose: 200.0 mg/kg/injection, schedule: Q01DX009 (ip), vehicle: saline 93 % of control

c1cncc(-c2nnc(-c3cccnc3)o2)c1
inactive: endpoint: mean survival time, dose: 1.56 mg/kg/injection, schedule: Q04DX002 (ip), vehicle: saline with Tween-80 101 % of control | endpoint: mean survival time, dose: 3.13 mg/kg/injection, schedule: Q04DX002 (ip), vehicle: saline with Tween-80 104 % of control | endpoint: mean survival time, dose: 6.25 mg/kg/injection, schedule: Q04DX002 (ip), vehicle: saline with Tween-80 104 % of control | endpoint: mean survival time, dose: 12.5 mg/kg/injection, schedule: Q04DX002 (ip), vehicle: saline with Tween-80 104 % of control | [4] 87 % of control | [5] 87 % of control

O=C(O)/C(=C\c1ccccc1)NC(=O)c1ccccc1
inactive: [6] 95 % of control | [7] 96 % of control | [8] 105 % of control

COc1ccc(N=C(N)N=C(N)N)cc1
inactive: [9] 102 % of control | [10] 96 % of control | [6] 106 % of control

CC(C)NC(=O)C1C2CCC(C2)C1C(=O)NC(C)C (stereo not drawn)
inactive: [11] 98 % of control | [12] 111 % of control | endpoint: mean survival time, dose: 400.0 mg/kg/injection, schedule: Q04DX003 (ip), vehicle: saline 98 % of control

CCOc1ccc(-n2c(=O)c(N=Nc3ccccc3)c(O)n(-c3ccc(C)cc3)c2=S)cc1
inactive: [13] 97 % of control | [14] 89 % of control

COC(=O)CC(O)(CCCC(C)(C)O)C(=O)OC1C(OC)=CC23CCCN2CCc2cc4c(cc2C13)OCO4 (stereo not drawn) (tested in a mixture with another compound)
inactive: endpoint: mean survival time, dose: 0.25 mg/kg/injection, schedule: Q01DX009 (ip), vehicle: saline with Tween-80 112 % of control | endpoint: mean survival time, dose: 0.5 mg/kg/injection, schedule: Q01DX009 (ip), vehicle: saline with Tween-80 115 % of control | endpoint: mean survival time, dose: 1.0 mg/kg/injection, schedule: Q01DX009 (ip), vehicle: saline with Tween-80 115 % of control | endpoint: mean survival time, dose: 2.0 mg/kg/injection, schedule: Q01DX009 (ip), vehicle: saline with Tween-80 124 % of control

O=C(O)CC(CC(=O)O)C(=O)O.[NH-]C1CCCCC1[NH-].[Pt+2]
inactive: endpoint: median survival time, dose: 3.12 mg/kg/injection, schedule: Q04DX003 (ip), vehicle: Klucel (hydroxypropylcellulose) (HPC) 112 % of control | endpoint: median survival time, dose: 3.12 mg/kg/injection, schedule: Q04DX003 (ip), vehicle: saline 106 % of control | endpoint: median survival time, dose: 6.25 mg/kg/injection, schedule: Q04DX003 (ip), vehicle: Klucel (hydroxypropylcellulose) (HPC) 112 % of control | endpoint: median survival time, dose: 6.25 mg/kg/injection, schedule: Q04DX003 (ip), vehicle: saline 106 % of control | endpoint: median survival time, dose: 12.5 mg/kg/injection, schedule: Q04DX003 (ip), vehicle: Klucel (hydroxypropylcellulose) (HPC) 122 % of control | endpoint: median survival time, dose: 12.5 mg/kg/injection, schedule: Q04DX003 (ip), vehicle: saline 101 % of control and 109 % of control | endpoint: median survival time, dose: 25.0 mg/kg/injection, schedule: Q04DX003 (ip), vehicle: Klucel (hydroxypropylcellulose) (HPC) 101 % of control | endpoint: median survival time, dose: 25.0 mg/kg/injection, schedule: Q04DX003 (ip), vehicle: saline 118 % of control and 107 % of control | endpoint: median survival time, dose: 50.0 mg/kg/injection, schedule: Q04DX003 (ip), vehicle: Klucel (hydroxypropylcellulose) (HPC) 103 % of control | endpoint: median survival time, dose: 50.0 mg/kg/injection, schedule: Q04DX003 (ip), vehicle: saline 109 % of control | endpoint: median survival time, dose: 100.0 mg/kg/injection, schedule: Q04DX003 (ip), vehicle: Klucel (hydroxypropylcellulose) (HPC) 109 % of control | endpoint: median survival time, dose: 100.0 mg/kg/injection, schedule: Q04DX003 (ip), vehicle: saline 120 % of control and 110 % of control | endpoint: median survival time, dose: 200.0 mg/kg/injection, schedule: Q04DX003 (ip), vehicle: Klucel (hydroxypropylcellulose) (HPC) 116 % of control | endpoint: median survival time, dose: 200.0 mg/kg/injection, schedule: Q04DX003 (ip), vehicle: saline 113 % of control

CC(=O)CC(C)=Nc1cccc(Cl)c1
inactive: [4] 98 % of control | [5] 95 % of control | [15] 95 % of control

Fc1ccc2ccnnc2c1
inactive: endpoint: mean survival time, dose: 100.0 mg/kg/injection, schedule: Q01DX001 (ip), vehicle: other 103 % of control | endpoint: mean survival time, dose: 200.0 mg/kg/injection, schedule: Q01DX001 (ip), vehicle: other 95 % of control

CCCCCCC(C)OC(=O)CCCc1ccc(N(CCCl)CCCl)cc1 (stereo not drawn)
inactive: endpoint: mean survival time, dose: 50.0 mg/kg/injection, schedule: Q01DX009 (ip), vehicle: acetone 104 % of control | endpoint: mean survival time, dose: 100.0 mg/kg/injection, schedule: Q01DX009 (ip), vehicle: acetone 104 % of control | endpoint: mean survival time, dose: 200.0 mg/kg/injection, schedule: Q01DX009 (ip), vehicle: acetone 104 % of control

Clc1cc(CBr)c(CBr)cc1Cl
inactive: endpoint: mean survival time, dose: 12.5 mg/kg/injection, schedule: Q01DX009 (ip), vehicle: saline with Tween-80 107 % of control | [9] 97 % of control | [10] 100 % of control

CC1CC(C)(C)OC(C(C)C)O1 (stereo not drawn)
inactive: [4] 96 % of control | [5] 96 % of control | [15] 96 % of control

O=C(c1ccccc1)N1CC2CC3OC3c3cccc1c32 (stereo not drawn)
inactive: [10] 102 % of control | [6] 98 % of control | [7] 94 % of control

Nc1nc(=S)c2ncn(C3OC(CO)C4OC43)c2[nH]1 (stereo not drawn)
inactive: [1] 101 % of control | [2] 98 % of control | [3] 97 % of control

O=[N+]([O-])c1ccc(C(O)(c2ccc([N+](=O)[O-])cc2)c2ccc([N+](=O)[O-])cc2)cc1
inactive: [6] 96 % of control | [16] 98 % of control | [7] 95 % of control | [17] 97 % of control | [8] 96 % of control | [18] 97 % of control

COc1ccc(/C=N/NC(=O)CNC(=O)Nc2ccc(F)cc2)cc1OC
inactive: [10] 96 % of control | [6] 92 % of control | [7] 92 % of control

CC(=O)c1cccc(C(=O)O)c1
inactive: [13] 103 % of control | [14] 101 % of control | [19] 103 % of control

CC(C)(c1cc(Cl)c(OCCO)c(Cl)c1)c1cc(Cl)c(OCCO)c(Cl)c1
inactive: [16] 105 % of control | [17] 102 % of control | [18] 109 % of control

N#CCCCN1CCCCCC1
inactive: [16] 97 % of control

O[C@@H](c1ccccc1)[C@@H](c1ccccc1)N1CCCCC1
inactive: endpoint: mean survival time, dose: 50.0 mg/kg/injection, schedule: Q04DX003 (ip), vehicle: saline 103 % of control | [20] 96 % of control | [11] 108 % of control | [21] 104 % of control | [12] 98 % of control

Nc1cccc2nc3ccccc3cc12
inactive: [6] 93 % of control | [16] 92 % of control | [7] 95 % of control | [17] 94 % of control | [18] 91 % of control

COc1ccc2c(c1OC)C1C3CC=CC3C2C2=[N+]1CCc1cc3c(cc12)OCO3 (stereo not drawn)
inactive: endpoint: mean survival time, dose: 12.5 mg/kg/injection, schedule: Q04DX003 (ip), vehicle: saline 97 % of control | endpoint: mean survival time, dose: 25.0 mg/kg/injection, schedule: Q04DX003 (ip), vehicle: saline 104 % of control | [11] 97 % of control

COc1ccc(N(C)C/C(CN)=N/O)cc1
inactive: endpoint: mean survival time, dose: 100.0 mg/kg/injection, schedule: Q01DX001 (ip), vehicle: Klucel (hydroxypropylcellulose) (HPC) 97 % of control | endpoint: mean survival time, dose: 200.0 mg/kg/injection, schedule: Q01DX001 (ip), vehicle: Klucel (hydroxypropylcellulose) (HPC) 102 % of control

C/C=C/C=C(\CC)C(=O)OCC
inactive: [13] 97 % of control | [14] 97 % of control | [19] 86 % of control

Cc1cc(C)c2c(C#N)cn(-c3ccccc3)c2n1
inactive: [20] 104 % of control | [21] 100 % of control | endpoint: mean survival time, dose: 400.0 mg/kg/injection, schedule: Q01DX001 (ip), vehicle: saline 100 % of control
